The values that follow come from US5585381A, “Pyrimidine derivatives and pharmaceutical composition” (Kureha Chemical Industry Co., Ltd., priority 1994, dated 1996).

Where two headings read alike, the source gives them in different places.

For data set [1] the following is noted: ACE inhibitor; cited from earlier work.
In data set [2] the test system is kidney disease model rats. Particulars: cited from earlier work.
For data set [3], the system named is renal dysfunction model rats. Particulars: cited from earlier work.
Another data set has as its system hyperlipemia model rats. Particulars: cited from earlier work.
In data set [4] the test system is kidney disease model rats. The data set is described as follows: Action to depress blood pressure in kidney disease model rats (tail cuff). The data set is classed as in vivo, Sprague-Dawley female rats. Particulars: 20 mg/kg per os; for Blood pressure (average systolic): after two days, control 210 mmHg. On the procedure: (§1) The compounds of the present invention and the reference substance were forcedly administered per os to kidney disease model rats, and the action to depress blood pressure was observed. The kidney disease model rats were prepared by ligature of branches of renal artery in accordance with the conventional method, that is, the left hilum renalis of Sprague-Dawley female rats was exposed under anesthesia, and one of four secondary branches of renal artery was left unligated, while the remaining three branches were ligated, respectively. After a week, the hilum renalis (artery, vein, and ureter) of the right kidney were further ligated to thereby prepare the rats whose renal function was lowered to approximately 1/8 of the normal function. Each group consisted of eight rats. The drugs to be tested (20 mg/kg) were administered to each administering group, and only water was administered to control group. After two days from the administration, the systolic blood pressure was measured by the tail cuff method using a blood pressure measuring apparatus (UR5000; Ueda).

In data set [5] the test system is kidney disease model rats. Put plainly: Action to survival time of kidney diseased animals. The format is in vivo, Sprague-Dawley female rats. Particulars: 20 mg/kg/day per os; observation eight weeks (upper limit); control 5.0. The protocol:
as §1
The kidney disease model rats were prepared as in Example 21. Fifteen groups (8 rats per group) were prepared in a manner so that there was no major difference between the groups in the serum creatinine value and the urea nitrogen value indicating renal function. The rats in each group were allowed to freely take up feed and water. […] To the rats in the control group, only water was forcedly administered per os every day. If kidney diseases are aggravated, the rat will die of uremia. Thus, the survival time was observed as comprehensive indication of the improvement effect on the kidney diseases. The observation period was eight weeks. Thus if all rats survived, the average survival time is eight weeks and it is an upper limit.

Data set [6] relates to kidney disease model rats. The data set is described as follows: Renal function indicatory value (action to kidney diseases). The data set is classed as in vivo, Sprague-Dawley female rats. Particulars: 20 mg/kg/day per os, two weeks; for Creatinine clearance (CCr): control 0.20; for Creatinine (serum, Scr): control 2.0; for Urea nitrogen (BUN): control 100. On the procedure: The kidney disease model rats were prepared by ligature of branches of renal artery in accordance with the conventional method, that is, the left hilum renalis of Sprague-Dawley female rats was exposed under anesthesia, and one of four secondary branches of renal artery was left unligated, while the remaining three branches were ligated, respectively. […] Each group consisted of eight rats. The drugs to be tested (20 mg/kg) were administered to each administering group, and only water was administered to control group. After two days from the administration, the systolic blood pressure was measured by the tail cuff method using a blood pressure measuring apparatus (UR5000; Ueda).
The kidney disease model rats were prepared as in Example 21. Fifteen groups (8 rats per group) were sleeked in a manner so that there were no major differences between each group in the serum creatinine value and the urea nitrogen value indicating renal function. The rats in each group were allowed to freely take up feed and water. […] To the rats in the control group, only water was forcedly administered per os every day. After two weeks, 0.2 ml of blood was collected from the carotid artery of the rat under anesthesia, and centrifuged to obtain serum. Using 25 μl of the serum, serum creatinine (Scr) was measured by a creatinine analytical instrument (Beckman). Using 10 μl of the serum, urea nitrogen (BUN) was measured by a BUN analytical instrument (Beckman). Creatinine clearance was evaluated as follows:
After serum creatinine measurement, rats were placed in urinary metabolic cages for 24 hours to collect urine. Urinary creatine concentration (Ucr) was measured by a creatinine analytical instrument, and total volume of urination (Uvol) was also measured. Creatinine clearance (CCr) was calculated by the following formula: [formula]

Data set [7] can be described thus: Acute toxicity, single oral dose in mice. The data set is classed as in vivo, ICR female mice. Particulars: 500 mg/kg single oral dose, 6 days, 5 per group. On the procedure:
Five-week-old ICR female mice (5 mice per group) were bred for acclimation for a week. Then, the compounds of the present invention were dissolved or dispersed in an aqueous solution of 0.5% methylcellulose, and orally administered to the mice in a single dosage (500 mg/kg).

Data set [8] deals with T1, angiotensin II receptor subtype 1 (AT1) (Oryctolagus cuniculus, UniProt P34976).
T1 construct: from adrenal glands in rabbits; from tissue; host or cells: rabbit adrenal glands
T1 sequence (P34976 1-359): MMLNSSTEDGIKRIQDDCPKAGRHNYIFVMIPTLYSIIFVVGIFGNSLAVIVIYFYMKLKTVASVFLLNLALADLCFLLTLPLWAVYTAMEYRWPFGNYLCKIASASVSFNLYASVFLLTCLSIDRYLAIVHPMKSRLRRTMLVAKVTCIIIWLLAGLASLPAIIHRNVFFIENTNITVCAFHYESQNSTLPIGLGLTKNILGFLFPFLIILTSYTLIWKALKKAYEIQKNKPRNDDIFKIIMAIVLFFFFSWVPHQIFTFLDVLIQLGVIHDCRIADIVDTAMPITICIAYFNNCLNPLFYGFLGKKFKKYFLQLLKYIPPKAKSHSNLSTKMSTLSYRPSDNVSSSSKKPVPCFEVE
Put plainly: Binding to angiotensin II receptor subtype 1 (AT1). On the set-up: species or system rabbits (adrenal glands). Particulars: 100 μM; 3H-angiotensin II tracer. On the procedure: (§2) In this Example, the affinity to the angiotensin II receptor subtype 1 or subtype 2 was evaluated by a binding assay in accordance with the method described in Biochem. Pharmacol., 33, 4057-4062 (1984).
(§3) Specifically, the measurement of the total binding in the presence of each drug was performed as follows:
(§4) A mixture (final volume=0.25 ml) of a drug in a given concentration (the drug was dissolved in DMSO, and diluted to a double volume with a buffer attached to a drug discovery system to prepare sample for the assay; 0,025 ml), a tracer (0.025 ml), and receptors (0.2 ml) was incubated [in the case of the angiotensin II receptor subtype 1 (AT1), at room temperature for 3 hours, and in the case of the subtype 2 (AT2), at 37° C. for 1 hour]. Then, the reaction mixture was filtered with suction (GF/C filter was used in AT1, and GF/B filter was used in AT2). The filter papers after filtration with suction (the tracer bound to the receptors) were counted by a γ-well counter (ARC-500, Aloka). The non-specific bindings were measured by repeating the above method, except that a large excess amount of a displacer was added. The specific binding of the drug in the given concentration was calculated by subtracting the non-specific binding from the total binding, respectively.
(§5) In AT1 and AT2, the percentages to inhibit the bindings of radioactive ligands (tracer) to receptors by the drugs to be tested (IC50 value of concentration to show 50% inhibition, or binding inhibition % in 100 μM) were measured, using the drugs to be tested and control drugs in the given concentration.

The target of data set [9] is T2, angiotensin II receptor subtype 2 (AT2) (Bos taurus, UniProt G5E6F7).
T2 construct: from cerebellar cortex in bovine; from tissue; host or cells: bovine cerebellar cortex
T2 sequence (G5E6F7 1-362): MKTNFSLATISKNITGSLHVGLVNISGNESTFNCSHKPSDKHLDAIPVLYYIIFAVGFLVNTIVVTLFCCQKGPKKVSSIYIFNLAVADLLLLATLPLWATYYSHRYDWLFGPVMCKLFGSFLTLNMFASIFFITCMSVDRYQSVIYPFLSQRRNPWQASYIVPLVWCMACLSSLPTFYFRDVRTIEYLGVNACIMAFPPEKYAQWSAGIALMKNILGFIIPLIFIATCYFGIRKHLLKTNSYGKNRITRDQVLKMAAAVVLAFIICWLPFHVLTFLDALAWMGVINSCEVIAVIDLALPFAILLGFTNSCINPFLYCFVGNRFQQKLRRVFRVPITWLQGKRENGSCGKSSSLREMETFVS
The data set is described as follows: Binding to angiotensin II receptor subtype 2 (AT2). Set-up: species or system bovine (cerebellar cortex). Particulars: 125I-Tyr4-angiotensin II tracer, 37° C., 1 hour. On the procedure: as §2, §3, §4, §5
from cerebellar cortex in bovine
tracer: ^125 I-Tyr^4 -angiotensin II

In the case of `C[C@H](CS)C(=O)N1CCC[C@H]1C(=O)O` [captoril], in [1], the blood pressure entry was “blood pressure is lowered” and the “progress of renal dysfunction” value is “the progress of renal dysfunction is improved”.
In the case of `CCCN(Cc1ccc(-c2ccccc2-c2nnn[nH]2)cc1)c1ncccc1C(=O)O` [A-81988, 2-[N-propyl-N-[[2'-(1H-tetrazol-5-yl)biphenyl-4-yl]methyl]amino]pyridine-3-carboxylic acid], in data set [2], the blood pressure result was “the reduction of blood pressure was observed” and the proteinuria entry is given as “proteinuria was improved”.
As for `CCCCc1nc(Cl)c(CO)n1Cc1ccc(-c2ccccc2-c2nnn[nH]2)cc1` [DuP753, 2-butyl-4-chloro-5-(hydroxymethyl)-1-[[2'-(1H-tetrazol-5-yl)biphenyl-4-yl]methyl]imidazole], in data set [3], the blood pressure entry is listed as “the reduction of blood pressure accompanied”; the “effect on proteinuria and glomerulosclerosis” value is “effective against proteinuria and glomerulosclerosis”. In addition, the blood pressure entry in the data set with hyperlipemia model rats (large dose more effective against the kidney disease) is given as “an evident reduction of blood pressure was observed”. In the data set on hyperlipemia model rats (lower dose), the blood pressure result is “without practical effect to blood pressure” and the “effect on kidney disease” value is given as “the kidney disease was improved”. Also, the “action to depress blood pressure (in words)” value in [4] (comparison with control group) is “clearly showed the action to depress the blood pressure”.
On to `CCOC(=O)[C@H](CCc1ccccc1)N[C@@H](C)C(=O)N1CCC[C@H]1C(=O)O` [enalapril], for which, in [1], the blood pressure result was “blood pressure is lowered” and the “progress of renal dysfunction” value is “the progress of renal dysfunction is improved”.
Broadly, the inhibition is the drop in the measured response relative to a control, in per cent. Higher therefore signals a strong effect. In turn, `CCCCC(=O)Nc1c(Cl)ncnc1NCc1ccc(C(=O)OC)cc1` [Compound No. 1, methyl 4-[[(6-chloro-5-valeramido)pyrimidin-4-yl]aminomethyl]benzoate] returned an Average survival time in data set [5] of 6.9 weeks. In addition, in data set [6], the “Creatinine clearance (CCr)” value turned out to be 0.29 mL/min; the “Creatinine (serum, Scr)” value was 1.7 mg/dL; the “Urea nitrogen (BUN)” value is 84 mg/dL. In [7], the “Number of deaths/number of survivals” value is on record as 0/5. The compound also returned an inhibition at 100 µM in [8] of 11%. This compound also gave an inhibition at 100 µM in [9] of 0%. Also, the “Blood pressure (average systolic)” value in data set [4] was determined as 210 mmHg.
The compound `CCCCC(=O)Nc1c(Cl)ncnc1NCc1ccc(OC)cc1` [Compound No. 48, 4-[[(6-Chloro-5-Valeramido)pyrimidin-4-yl]aminomethyl]anisole] registered an Average survival time in data set [5] of 6.9 weeks. In data set [6], the “Creatinine clearance (CCr)” value is 0.30 mL/min; the “Creatinine (serum, Scr)” value was 1.7 mg/dL; the “Urea nitrogen (BUN)” value came to 83 mg/dL. The inhibition at 100 µM in data set [8] came out at 0%. Besides, the inhibition at 100 µM in [9] came out at 0%. In addition, the “Blood pressure (average systolic)” value in data set [4] is listed as 207 mmHg.
